Test results published in patent US11833139B2 (priority 2019, dated 2023).
In brackets after ≈: the same amount, converted by molar mass. Where two headings read alike, the source gives them in different places.

What was measured:
A. baumannii ATCC 17978 = experiment: MIC in fhuE expressing A. baumannii strains (plasmid-based expression, IPTG inducible); type: cell-based, Acinetobacter baumannii; conditions: for MIC: Acinetobacter baumannii
Excerpt: The fhuE gene (AWC45_RS10145) from the A. baumannii HUMC1 strain was cloned into the E. coli/A. baumannii shuttle plasmid pVT111 under the control of the isopropyl-beta-D-1-thiogalactopyranoside (IPTG) inducible promoter Ptrc-lacO. The resulting plasmid and the original pVT111 plasmid (control) were transferred to the A. baumannii strain ATCC-17978 by conjugation and transconjugants were selected on LB agar plates containing kanamycin.

[1] = system: A. baumannii ATCC-17978 expressing FhuE V38P; experiment: Complementation assay, plasmid mediated expression of FhuE variants in CA-MHB; type: cell-based; conditions: ATCC-17978 host, 1 mM IPTG
Excerpt: See, Cadieux, N., Bradbeer, C. & Kadner, R. J. Sequence changes in the ton box region of BtuB affect its transport activities and interaction with TonB protein. J. Bacteriol. 182, 5954-5961 (2000); Funahashi, T. et al. Identification and characterization of an outer membrane receptor gene in Acinetobacter baumannii required for utilization of desferricoprogen, rhodotorulic acid, and desferrioxamine B as xenosiderophores. Biol. Pharm. Bull. 35, 753-760 (2012); the content of each of which is incorporated herein by reference.

A. baumannii HUMC1 = experiment: MIC by broth microdilution (CLSI), carbapenem-resistant clinical isolate HUMC1; type: cell-based, Acinetobacter baumannii; conditions: Acinetobacter baumannii, read-out: MIC
Method: (§1) Two A. baumannii isolates were used in this example: HUMC1 (BV374) (Spellberg/Luna Laboratory, University of Southern California, Los Angeles, Calif.) and UNT091-1 (BV378) (UNT Health Science Center, Fort Worth, Tex.). The HUMC1 isolate is a hyper-virulent drug-resistant clinical strain isolated from a blood-stream infection. […] The isolates were stored at −80° C. as 20% (v/v) glycerol cultures.
(§2) MICs were determined by the broth microdilution method following the guidelines of the Clinical Laboratory Standards Institute (CLSI) using RPMI supplemented with […] cationic-adjusted Muller Hinton broth (CA-MHB) as assay medium. To prepare the bacterial inocula, 3-5 colonies of bacterial strains from over-night growth on ChromAgar orientation plates (CHROMagar Cat. No. RT412) were suspended in 5 mL saline. The turbidity of the bacterial suspension was adjusted to 0.5 McFarland units (equal to an optical density at 610 nm (OD610) to 0.08-0.1). This suspension was diluted 200-fold in RPMI supplemented with 10% (v/v) FCS to reach a final concentration of […] colony forming units (CFU)/mL and was used to inoculate the microtiter plates.
(§3) Serial 2-fold dilutions of the antibiotics were prepared in a separate 96-well plate polypropylene U-bottom plate (Ratiolab Cat. No. 6018111) in RPMI supplemented with 10% (v/v) FCS at 10-fold of the final test concentrations and 10 μl of the dilutions were transferred to new 96-well polystyrene U-bottom microtiter plates with a parafilm plate cover.
(§4) The plates were then inoculated with 90 μL per well of the prepared bacterial suspensions in using a multichannel pipette (Eppendorf), with the first column containing 4 wells each for growth control (no antibiotic). […] The MIC was recorded as the lowest concentration of the compound that inhibited bacterial growth by visual inspection. MICs were determined at least in duplicates and in the case of variations, the higher values are provided.

A. baumannii UNT091 [2] = experiment: MIC by broth microdilution (CLSI), carbapenem-resistant clinical isolate UNT091; type: cell-based, Acinetobacter baumannii; conditions: Acinetobacter baumannii, read-out: MIC
Method: as §1, §2, §3, §4

[3] = system: panel of 293 CRAB strains (A. baumannii); experiment: MIC by agar dilution on Muller Hinton Agar, panel of 293 CRAB strains; type: cell-based
Method: The strain panel contained isolates with 10% MDR (n=29), 86% XDR (n=253) and 4% (n=11) PDR phenotypes. Isolates were collected mainly from patients with pneumonia (59%), bloodstream infections (28%), and skin and soft tissue infections (11%) and categorized according to CLSI breakpoints as XDR when […] the antimicrobial classes described by Magiorakos et al. 2011. […] Comparator antibiotics were tested at CLSI standard conditions.

A. baumannii [4] = experiment: Dose fractionation in a neutropenic mouse model of infection; type: in vivo; conditions: IV q24 h, q12 h or q6 h
Excerpt: FIG. 5 summarizes the results of dose fractionation experiments in a neutropenic mouse model of infection.

A. baumannii HUMC-1 = conditions: HUMC-1, rifabutin 0.1 mg/L
Method: (§5) A. baumannii clinical isolates were stored at −80° C. as 20% (v/v) in glycerol stock cultures.
(§6) Selective agar plates were prepared using RPMI powder (Sigma R7755) dissolved at 10.3 g/L with agar at 15 g/L and boiled until complete agar melting. After cooling the media to 45° C., 0.3 g/L L-glutamine (Sigma G7513), 25 mM HEPES (Gibco 15630-056) and 10% (v/v) FCS (Gibco 10500-064) were added.
(§7) The culture inocula were prepared from a bacterial NaCl suspension at 0.5 McFarland diluted 200-times in 100 mL of RPMI (Sigma R8758)+10% FCS in 500 mL flasks to reach ˜5×10^5 CFU/mL. The flasks were incubated for 24 h at 37° C. under shaking at 220 rpm. After incubation, the cells were pelleted by centrifugation (10 min, 7000 rpm at RT) and re-suspended in 1 mL PBS. […] After incubation at 35° C. for 24 h colonies were counted, and the frequency of resistance was calculated as the ratio between the number of colonies growing on plates with antibiotic and the total colony count of the inocula.

[5] = system: five clinical A. baumannii strains; conditions: rifabutin concentrations of ≥2 mg/L
Method: as §5, §6, §7

A. baumannii ACC00445 [6] = system: A. baumannii ACC00445
Method: as §5, §6, §7

A. baumannii UNT238 = system: A. baumannii UNT238
Method: as §5, §6, §7

A. baumannii UNT091 [7] = system: A. baumannii UNT091
Method: as §5, §6, §7

A. baumannii LAC-4 = system: A. baumannii LAC-4
Method: as §5, §6, §7

A. baumannii UNT093 = experiment: Neutropenic lung infection mouse model (CD-1 mice, intranasal infection); type: in vivo; conditions: UNT093, IV at 2 h post-infection, 24 hours of treatment, doses of <0.5 mg/kg
Method: (§8) After 24 hours of treatment the mice were sacrificed and colony forming units in the lungs were measured.

A. baumannii UNT091 [8] = experiment: as above; type: in vivo; conditions: UNT091, IV at 2 h post-infection, 24 hours of treatment, doses of <0.5 mg/kg
Method: as §8

A. baumannii [9] = experiment: Target exposures (PK/PD index, sigmoid Emax model) for 1-log reduction in lung CFUs; type: in vivo
[10] = system: A. baumannii UNT091-1 ΔfhuE mutant; experiment: Neutropenic lung infection in CD-1 mice, wildtype versus ΔfhuE mutant; type: in vivo; conditions: mice infected with UNT091-1::ΔfhuE, single IV dose at 2 h, burden at 26 hours
Method: FIG. 6 is a graph showing CFU per lung pair in mice inoculated with A. baumannii strains. Neutropenic, female CD-1 mice (5 per group) were inoculated intranasally (t=0 hr) with equivalent titers (6.90 and 6.93 log10 CFU) of A. baumannii UNT091-1 wildtype and A. baumannii UNT091-1 ΔfhuE mutant. The treatment (single IV dose) was administered at 2-hour post-infection and bacterial burden was reported at 26 hours by determining CFU/lung. Furthermore, the effect of RBT was blunted in mice infected with the UNT091-1::ΔfhuE strain supporting the role of fhuE as mediating RBT sensitivity both in vitro and in vivo.

A. baumannii ACC00445 [11] = experiment: Neutropenic sepsis mouse model (CD-1 mice, IP infection); type: in vivo; conditions: IV at 1 h and 5 h post-infection, 1 mg/kg
Excerpt: The CD-1 mice were IP infected with A. baumannii ACC00445 strain in the presence of […].

A. baumannii [12] = experiment: Liquid MIC determination using RPMI supplemented with FCS, clinical panel; type: cell-based; conditions: Acinetobacter baumannii
Excerpt: All isolates were resistant to carbapenems.

[13] = Acinetobacter baumannii, iron-chelated nutrient rich MHA (0.1 mM PIH), agar dilution

SMILES: CO[C@H]1/C=C/O[C@@]2(C)Oc3c(C)c(O)c4c(c3C2=O)C2=NC3(CCN(CC(C)C)CC3)NC2=C(NC(=O)/C(C)=C\C=C\[C@H](C)[C@H](O)[C@@H](C)[C@@H](O)[C@@H](C)[C@H](OC(C)=O)[C@@H]1C)C4=O [rifabutin]
- MIC (A. baumannii ATCC 17978; ATCC17978, read-out: rifabutin MIC, FhuE expressing plasmid, CA-MHB 1 mM IPTG): 0.002 µg/mL (≈ 0.00236 µM)
- MIC (A. baumannii ATCC 17978; ATCC17978, read-out: rifabutin MIC, FhuE expressing plasmid, CA-MHB no IPTG): 0.016 µg/mL (≈ 0.0189 µM)
- MIC (A. baumannii ATCC 17978; ATCC17978, read-out: rifabutin MIC, empty plasmid, CA-MHB 1 mM IPTG): 2 µg/mL (≈ 2.36 µM)
- MIC (A. baumannii ATCC 17978; ATCC17978, read-out: rifabutin MIC, empty plasmid, CA-MHB no IPTG): 1 µg/mL (≈ 1.18 µM)
- MIC (A. baumannii ATCC 17978; ATCC17978, read-out: rifabutin MIC, no plasmid, CA-MHB 1 mM IPTG): 4 µg/mL (≈ 4.72 µM)
- MIC (A. baumannii ATCC 17978; ATCC17978, read-out: rifabutin MIC, no plasmid, CA-MHB no IPTG): 4 µg/mL (≈ 4.72 µM)
- MIC lower in fhuE expressing plasmid strain compared to empty plasmid strain (A. baumannii ATCC 17978; in the presence of IPTG): 1000 fold
- restoration of potent activity by FhuE V38P expression compared to wildtype FhuE [1]: not able to restore rifabutin potent activity
- MIC (A. baumannii HUMC1; HUMC1, HUMC1, RPMI plus 10% FCS (Table 1)): 0.002 µg/mL
- MIC (A. baumannii HUMC1; HUMC1, HUMC1 parental strain, RPMI + 10% FCS (Table 2)): 0.002 µg/mL
- MIC (A. baumannii UNT091 [2]; UNT091, UNT091, CA-MHB (Table 1)): 8 µg/mL (≈ 9.44 µM)
- MIC (A. baumannii UNT091 [2]; UNT091, UNT091, RPMI plus 10% FCS (Table 1)): 0.002 µg/mL
- MIC (A. baumannii UNT091 [2]; UNT091, UNT091 parental strain, RPMI + 10% FCS (Table 2)): 0.002 µg/mL
- MIC50 [3, 13]: 0.008 µg/mL (≈ 0.00944 µM)
- MIC90 [3, 13]: 1 µg/mL (≈ 1.18 µM)
- activity ([3]; standard MHA): only marginal activity
- dose fractionation result (A. baumannii [4]): clear dose response relationship
- Frequency of Mutational Resistance (FoR) (A. baumannii HUMC-1): 1.70E−05
- frequency of mutational resistance [5]: ~10^−9
- Frequency of Mutational Resistance (FoR) (A. baumannii ACC00445 [6]; ACC00445, rifabutin 0.02 mg/L): 1.10E−05
- Frequency of Mutational Resistance (FoR) (A. baumannii ACC00445 [6]; ACC00445, rifabutin 0.2 mg/L): 8.10E−06
- Frequency of Mutational Resistance (FoR) (A. baumannii ACC00445 [6]; ACC00445, rifabutin 2 mg/L): 2.40E−09
- Frequency of Mutational Resistance (FoR) (A. baumannii ACC00445 [6]; ACC00445, rifabutin 20 mg/L): 5.70E−09
- Frequency of Mutational Resistance (FoR) (A. baumannii UNT238; UNT238, rifabutin 0.2 mg/L): 2.30E−05
- Frequency of Mutational Resistance (FoR) (A. baumannii UNT238; UNT238, rifabutin 2 mg/L): 8.80E−10
- Frequency of Mutational Resistance (FoR) (A. baumannii UNT238; UNT238, rifabutin 20 mg/L): 1.60E−08
- Frequency of Mutational Resistance (FoR) (A. baumannii UNT091 [7]; UNT091, rifabutin 0.02 mg/L): 7.80E−06
- Frequency of Mutational Resistance (FoR) (A. baumannii UNT091 [7]; UNT091, rifabutin 0.2 mg/L): 6.40E−06
- Frequency of Mutational Resistance (FoR) (A. baumannii UNT091 [7]; UNT091, rifabutin 2 mg/L): 7.10E−09
- Frequency of Mutational Resistance (FoR) (A. baumannii UNT091 [7]; UNT091, rifabutin 20 mg/L): 7.80E−09
- Frequency of Mutational Resistance (FoR) (A. baumannii LAC-4; LAC-4, rifabutin 0.2 mg/L): 7.00E−05
- Frequency of Mutational Resistance (FoR) (A. baumannii LAC-4; LAC-4, rifabutin 2 mg/L): 5.00E−09
- Frequency of Mutational Resistance (FoR) (A. baumannii LAC-4; LAC-4, rifabutin 20 mg/L): 4.20E−09
- effect on colony forming units in the lungs (A. baumannii UNT093): potent effect
- effect on colony forming units in the lungs (A. baumannii UNT091 [8]): potent effect
- Target AUC required to treat (A. baumannii [9]; MIC 0.5 mg/L): 5.74 mg·h/L
- Target Cmax required to treat (A. baumannii [9]; MIC 0.5 mg/L): 1.30 mg/L
- Target AUC required to treat (A. baumannii [9]; MIC 1 mg/L): 11.48 mg·h/L
- Target Cmax required to treat (A. baumannii [9]; MIC 1 mg/L): 2.59 mg/L
- Target AUC required to treat (A. baumannii [9]; MIC 2 mg/L): 22.96 mg·h/L
- Target Cmax required to treat (A. baumannii [9]; MIC 2 mg/L): 5.19 mg/L
- effect on bacterial burden (CFU/lung) [10]: blunted
- protection against sepsis (A. baumannii ACC00445 [11]): protects against sepsis
- MIC50 (A. baumannii [12]): 0.004 µg/mL (≈ 0.00472 µM)
- MIC90 (A. baumannii [12]): 2 µg/mL (≈ 2.36 µM)
